pIC50: −log10 of the molar value.
Target: T1, Recombinant human cathepsin A (Homo sapiens, UniProt P10619)
T1 construct: Recombinant human cathepsin A (residues 29-480, with a C-terminal 10-His tag); 10-His (C); purchased R & D Systems 1049-SE
T1 sequence (P10619 29-326 limits assumed): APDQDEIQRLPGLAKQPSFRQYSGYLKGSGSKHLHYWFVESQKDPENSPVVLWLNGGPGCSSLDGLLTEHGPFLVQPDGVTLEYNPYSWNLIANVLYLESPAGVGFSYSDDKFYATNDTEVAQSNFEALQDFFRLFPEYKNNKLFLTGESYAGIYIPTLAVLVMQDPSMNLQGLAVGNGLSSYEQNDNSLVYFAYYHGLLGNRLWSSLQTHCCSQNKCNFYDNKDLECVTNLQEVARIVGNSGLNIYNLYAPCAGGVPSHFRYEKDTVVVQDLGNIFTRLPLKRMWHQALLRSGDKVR
T1 sequence (P10619 327-480 limits assumed): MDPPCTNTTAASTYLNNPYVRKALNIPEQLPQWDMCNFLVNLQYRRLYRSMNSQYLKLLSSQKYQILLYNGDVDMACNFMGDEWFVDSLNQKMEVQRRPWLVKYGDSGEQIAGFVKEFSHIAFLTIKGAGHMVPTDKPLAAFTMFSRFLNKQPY
Experiment: Cathepsin A inhibitory activity
Format: biochemical
Details: Bodipy FL-labeled bradykinin substrate 2 μM, pH 5.5, microfluidic capillary electrophoresis
Protocol: Recombinant human cathepsin A (residues 29-480, with a C-terminal 10-His tag; R & D Systems, # 1049-SE) was proteolytically activated with recombinant human cathepsin L (R & D Systems, # 952-CY). Briefly, cathepsin A was incubated at 10 μg/ml with cathepsin L at 1 μg/ml in activation buffer (25 mM 2-(morpholin-4-yl)-ethanesulfonic acid (MES), pH 6.0, containing 5 mM dithiothreitol (DTT)) for 15 min at 37° C. Cathepsin L activity was then stopped by the addition of the cysteine protease inhibitor E-64 (N-(trans-epoxysuccinyl)-L-leucine-4-guanidinobutylamide; Sigma-Aldrich, # E3132; dissolved in activation buffer/DMSO) to a final concentration of 10 μM.
The activated cathepsin A was diluted in assay buffer (25 mM MES, pH 5.5, containing 5 mM DTT) and mixed with the test compound (dissolved in assay buffer containing (v/v) 3% DMSO) or, in the control experiments, with the vehicle in a multiple assay plate. […]
Uncleaved substrate and product were then separated by a microfluidic capillary electrophoresis on a LabChip® 3000 Drug Discovery System (12-Sipper-Chip; Caliper Life Sciences) and quantified by determination of the respective peak areas. Substrate turnover was calculated by dividing product peak area by the sum of substrate and product peak areas, and the enzyme activity and the inhibitory effect of the test compound thus quantified. […]

CC(C)(C)NC(=O)N[C@H](C(=O)N1C[C@H]2[C@@H]([C@H]1C(=O)NC(CC1CCC1)C(=O)C(N)=O)C2(C)C)C(C)(C)C (stereo partly drawn) [Boceprevir, (1R,2S,5S)—N-[(2E)-4-amino-1-cyclobutyl-3,4-dioxobutan-2-yl]-3-{(2S)-2-[(tert-butylcarbamoyl)amino]-3,3-dimethylbutanoyl}-6,6-dimethyl-3-azabicyclo[3.1.0]hexane-2-carboxamide]
pIC50: 6.00
